Source: patent publication US20100022562A1, “Use of Plant Growth Regulators to Reduce Abscisic Acid Related Plant Leaf Yellowing” (priority 2008, published 2010)

How the values were obtained:
Assay type in all cases: in vivo
[1] = system: Pansy plants; assay: Pansy shelf life under drought (daily wilting rating, sales index)
Protocol: (§1) All studies were conducted in the greenhouse at the research farm of Valent BioSciences Corporation (Long Grove, Ill.). Pansy plants were obtained either from local retailers as mature plants, or plugs from wholesale nurseries. Plugs of Pansy plants were transplanted into an 18-cell flat filled with Promix BX (available from Premier Horticulture Inc. Quakertown, Pa.) and grown for about 30 days prior to treatment. During growing periods, plants received daily irrigation and weekly fertilizer (1 g/L all purpose fertilizer 20-20-20, The Scotts Company, Marysville, Ohio).
(§2) Uniform plants were selected for the study. Prior to chemical treatment, plants were saturated with water and then drained for about two hours. A total of 20 mL chemical solution, which is equivalent to about 10% of the cell volume, was applied to each plant with 3 mL solution foliar applied to canopy and 17 mL solution drench applied to root zone. Unless specified, watering of plants was stopped after chemical treatment.
(§3) After chemical treatment, plants were arranged in a randomized complete block experimental design. The plants were rated daily for the extent of wilting on a scale from 1 (no wilting) to 4 (complete wilting) to generated a sales index rating. A rating of 2.5 was the point at which a plant was determined to be unmarketable and the previous day was recorded as the shelf life of that plant in days. Yellow leaf number was counted at 3 days after chemical treatment. Leaf transpiration rate was measured after treatment using a LI-1600 Steady State Porometer (LI-Cor, Lincoln, Nebr.). The transpiration rate of each treatment was calculated as the percentage of that of control at each day to reduce day-to-day variation caused by changes of environmental condition such as light intensity, humidity, and temperature.

[2] = system: Pansy plants; assay: Pansy yellow leaf number (leaf yellowing)
Protocol: as §1, §2
as §3, with “Yellow leaf number was counted at 3 days after chemical treatment.” left out

[3] = system: Pansy plants; assay: Pansy leaf transpiration rate (LI-1600 Steady State Porometer); details: for Transpiration rate (% of control): Matrix Premium Rose, Table 16; for Transpiration inhibition: sufficient water
Protocol: as §2, §3

[4] = system: Pansy plants; assay: Plant elongation after gibberellin treatment; details: 0.1 mg or 1 mg per plant; Delta Premium Pure White
Text: GA4/7 reduced the number of yellow leaves more than GA3.

## C#CC1(C)CC(=O)C=C(C)C1(O)/C=C/C(C)=C\C(=O)OC (stereo not drawn) [PBI-429, 8′ acetylene-ABA methyl ester]
[1]; 0.1 mg, Matrix Orange, drought, Table 1
  Shelf life: 5.5 days
[1]; 0.3 mg PBI-429, no water, Whispers White, Table 15
  Shelf life: 3.8 days
[1]; 0.3 mg, Clear Sky Yellow, drought, Table 8
  Shelf life: 6.5 days
[1]; 0.3 mg, Crown Azure Blue, drought, Table 9
  Shelf life: 4.5 days
[1]; 0.3 mg, Matrix Orange, drought, Table 1
  Shelf life: 5.8 days
[1]; 0.3 mg, Matrix Orange, drought, Table 2
  Shelf life: 5.8 days
[1]; 0.3 mg, Matrix Yellow, drought, Table 7
  Shelf life: 7.5 days
[1]; 1 mg, Matrix Orange, drought, Table 1
  Shelf life: 7.0 days
[1]; 3 mg PBI-429, no water, Whispers White, Table 15
  Shelf life: 7.2 days
[1]; 3 mg, Clear Sky Yellow, drought, Table 8
  Shelf life: 8.7 days
[1]; 3 mg, Crown Azure Blue, drought, Table 9
  Shelf life: 7.0 days
[1]; 3 mg, Matrix Orange, drought, Table 1
  Shelf life: 8.3 days
[1]; 3 mg, Matrix Orange, drought, Table 2
  Shelf life: 9.5 days
[1]; 3 mg, Matrix Yellow, drought, Table 7
  Shelf life: 8.8 days
[2]; 0.1 mg, Matrix Orange, drought, 3 d after treatment, Table 1
  Yellow leaf number: 3
[2]; 0.3 mg, Clear Sky Yellow, drought, 3 d after treatment, Table 8
  Yellow leaf number: 2.8
[2]; 0.3 mg, Crown Azure Blue, drought, 3 d after treatment, Table 9
  Yellow leaf number: 4.8
[2]; 0.3 mg, Matrix Orange, drought, 3 d after treatment, Table 1
  Yellow leaf number: 5
[2]; 0.3 mg, Matrix Orange, drought, 3 d after treatment, Table 2
  Yellow leaf number: 9.0
[2]; 0.3 mg, Matrix Yellow, drought, 3 d after treatment, Table 7
  Yellow leaf number: 9.7
[2]; 1 mg, Matrix Orange, drought, 3 d after treatment, Table 1
  Yellow leaf number: 7
[2]; 3 mg PBI-429, no water, Whispers White, 3 d after treatment, Table 15
  Yellow leaf number: 23.3
[2]; 3 mg, Clear Sky Yellow, drought, 3 d after treatment, Table 8
  Yellow leaf number: 4.8
[2]; 3 mg, Crown Azure Blue, drought, 3 d after treatment, Table 9
  Yellow leaf number: 7.7
[2]; 3 mg, Matrix Orange, drought, 3 d after treatment, Table 1
  Yellow leaf number: 10
[2]; 3 mg, Matrix Yellow, drought, 3 d after treatment, Table 7
  Yellow leaf number: 13.2
[3]; 0.3 mg PBI-429, no water, day 1 after treatment
  Transpiration rate (% of control): 34 % of control
[3]; 0.3 mg PBI-429, no water, day 2 after treatment
  Transpiration rate (% of control): 35 % of control
[3]; 0.3 mg PBI-429, no water, day 3 after treatment
  Transpiration rate (% of control): 26 % of control
[3]; 0.3 mg PBI-429, through 3 days after treatment
  Transpiration inhibition: greater than 50%
[3]; 0.3 mg PBI-429, watered, day 1 after treatment
  Transpiration rate (% of control): 32 % of control
[3]; 0.3 mg PBI-429, watered, day 2 after treatment
  Transpiration rate (% of control): 33 % of control
[3]; 0.3 mg PBI-429, watered, day 3 after treatment
  Transpiration rate (% of control): 44 % of control
[3]; 0.3 mg PBI-429, watered, day 4 after treatment
  Transpiration rate (% of control): 68 % of control
[3]; 0.3 mg PBI-429, watered, day 5 after treatment
  Transpiration rate (% of control): 74 % of control
[3]; 0.3 mg PBI-429, watered, day 7 after treatment
  Transpiration rate (% of control): 81 % of control
[3]; 0.3 mg PBI-429, watered, day 10 after treatment
  Transpiration rate (% of control): 88 % of control
[3]; 3 mg PBI-429, no water, day 1 after treatment
  Transpiration rate (% of control): 23 % of control
[3]; 3 mg PBI-429, no water, day 2 after treatment
  Transpiration rate (% of control): 14 % of control
[3]; 3 mg PBI-429, no water, day 3 after treatment
  Transpiration rate (% of control): 9 % of control
[3]; 3 mg PBI-429, no water, day 4 after treatment
  Transpiration rate (% of control): 10 % of control
[3]; 3 mg PBI-429, no water, day 5 after treatment
  Transpiration rate (% of control): 18 % of control
[3]; 3 mg PBI-429, through 10 days after treatment
  Transpiration inhibition: greater than 50%
[3]; 3 mg PBI-429, watered, day 1 after treatment
  Transpiration rate (% of control): 20 % of control
[3]; 3 mg PBI-429, watered, day 2 after treatment
  Transpiration rate (% of control): 15 % of control
[3]; 3 mg PBI-429, watered, day 3 after treatment
  Transpiration rate (% of control): 29 % of control
[3]; 3 mg PBI-429, watered, day 4 after treatment
  Transpiration rate (% of control): 28 % of control
[3]; 3 mg PBI-429, watered, day 5 after treatment
  Transpiration rate (% of control): 32 % of control
[3]; 3 mg PBI-429, watered, day 7 after treatment
  Transpiration rate (% of control): 44 % of control
[3]; 3 mg PBI-429, watered, day 10 after treatment
  Transpiration rate (% of control): 46 % of control

## C=C1C[C@]23C[C@@]1(O)CC[C@H]2[C@@]12C=C[C@H](O)[C@@](C)(C(=O)O1)[C@H]2[C@@H]3C(=O)O [GA3, gibberellin A3]
[1]; 0.1 mg, Delta Premium Pure White, Table 24
  Shelf life: 4.3 days
[1]; 1 mg, Delta Premium Pure White, Table 24
  Shelf life: 4.0 days
[2]; 0.1 mg, Delta Premium Pure White, 3 days after treatment, Table 24
  Yellow leaf number: 1.3
[2]; 0.1 mg, Delta Premium Pure White, 7 days after treatment, Table 24
  Yellow leaf number: 3.8
[2]; 1 mg, Delta Premium Pure White, 3 days after treatment, Table 24
  Yellow leaf number: 1.2
[2]; 1 mg, Delta Premium Pure White, 7 days after treatment, Table 24
  Yellow leaf number: 3.7
[4]
  Effect on plant elongation: no apparent effect
